# Measurements: ChEMBL document CHEMBL1129818, “Discovery of anti-influenza A virus activity of a corynanthe-type indole alkaloid, hirsutine, in vitro and the structure-activity relationship of natural and synthetic analogs” (Bioorg Med Chem Lett, 1997)
# Values joined by “and” are separate entries in the source; they are usually repeats but may differ in a detail not shown here. Equal values may be shown once.
# Experiments:
# MDCK [1] = experiment: Effective concentration required to determine Anti-influenza A virus Ishikawa/7/82 in MDCK cells by MTT assay; type: functional, cell-based; details: Canis lupus familiaris
# MDCK [2] = experiment: Cytotoxicity was measured by Anti-influenza A virus Ishikawa/7/82 in MDCK cells by MTT assay; type: functional; details: Canis lupus familiaris
# [3] = Selectivity index for effective concentration to that of Cytotoxicity in MDCK cells by MTT assay; type: functional
# MDCK [4] = experiment: The compound was evaluated for inhibitory effect on the replication of influenza A subtype H2N2 Adachi/2/57 in MDCK cells; type: functional, cell-based; details: Canis lupus familiaris
# MDCK [5] = experiment: The compound was evaluated for inhibitory effect on the replication of influenza A subtype H3N2 Philippine/2/82 in MDCK cells; type: functional, cell-based; details: Canis lupus familiaris
# MDCK [6] = experiment: The compound was evaluated for inhibitory effect on the replication of influenza B Singapore/222/79 strain in MDCK cells; type: functional, cell-based; details: Canis lupus familiaris
# MDCK [7] = experiment: The compound was evaluated for cytotoxicity by MTT assay in MDCK cells; type: functional; details: Canis lupus familiaris
# MDCK [8] = experiment: The compound was evaluated for inhibitory effect on the replication of influenza A subtype H3N2 ishikawa/7/82 in MDCK cells; type: functional, cell-based; details: Canis lupus familiaris
# MDCK [9] = experiment: The compound was evaluated for inhibitory effect on the replication of influenza A subtype H1N1 PR8/34 strain in MDCK cells; type: functional, cell-based; details: Canis lupus familiaris
# MDCK [10] = experiment: The compound was evaluated for inhibitory effect on the replication of influenza A subtype H1N1 yamagata/120/86 strain in MDCK cells; type: functional, cell-based; details: Canis lupus familiaris
# MDCK [11] = experiment: The compound was evaluated for inhibitory effect on the replication of influenza A subtype H2N2 murakami/4/64 strain in MDCK cells; type: functional, cell-based; details: Canis lupus familiaris
# MDCK [12] = experiment: The compound was evaluated for inhibitory effect on the replication of influenza B norway/1/80 strain in MDCK cells; type: functional, cell-based; details: Canis lupus familiaris
# MDCK [13] = experiment: The compound was evaluated for inhibitory effect on the replication of influenza A subtype H1N1 Bangkok/10/83 strain in MDCK cells; type: functional, cell-based; details: Canis lupus familiaris
# [14] = Selectivity index ratio of CC50 / EC50 was determined; type: functional
Compound,EC50 (MDCK [1]) [µg/mL],CC50 (MDCK [2]) [µg/mL],Selectivity index [3],further results
CC[C@H]1CN2CCc3c([nH]c4ccccc34)[C@H]2C[C@@H]1C(/C=N\C)=C(/O)OC,> 3.9,3.9,,
CC[C@@H]1CN2CCc3c([nH]c4ccccc34)[C@@H]2C[C@@H]1/C(=C\OC)C(=O)OC [CORYNANRHEIDINE],> 45.1,45.1,,
C=CC1CN2CCc3c([nH]c4ccccc34)C2C[C@@H]1/C(=C\OC)C(=O)OC (some centres undefined),1.8,25.2,14,
CC[C@H]1CN2CC[C@]3(O)C(=Nc4ccccc43)[C@H]2C[C@@H]1/C(=C\OC)C(=O)OC,> 100,> 100,,
NC(=O)c1ncn([C@@H]2O[C@H](CO)[C@@H](O)[C@H]2O)n1 [RIBAVIRIN],,,,EC50 (MDCK [4]): 2.2 µg/mL; EC50 (MDCK [5]): 6.1 µg/mL; EC50 (MDCK [6]): 8.5 µg/mL; CC50 (MDCK [7]): > 100 µg/mL; EC50 (MDCK [8]): 7.9 µg/mL; EC50 (MDCK [9]): 8.3 µg/mL; EC50 (MDCK [10]): 11.7 µg/mL; EC50 (MDCK [11]): 2.1 µg/mL; EC50 (MDCK [12]): 5.5 µg/mL; EC50 (MDCK [13]): 34.2 µg/mL
CC[C@H]1C[N+]2([O-])CCc3c([nH]c4ccccc34)[C@H]2C[C@@H]1/C(=C\OC)C(=O)OC (some centres undefined),86.4,> 100,>1.2,
CC[C@H]1CN2CCc3c([nH]c4ccccc34)[C@H]2C[C@@H]1/C(=C\OC)C(=O)OC [HIRSUTINE],,,,EC50 (MDCK [4]): > 23.5 µg/mL; EC50 (MDCK [5]): 0.57 µg/mL; Ratio [14]: 58.8 and 41.2; EC50 (MDCK [6]): > 23.5 µg/mL; CC50 (MDCK [7]): 23.5 µg/mL; EC50 (MDCK [8]): 0.4 µg/mL; EC50 (MDCK [9]): > 23.5 µg/mL; EC50 (MDCK [10]): > 23.5 µg/mL; EC50 (MDCK [11]): > 23.5 µg/mL; EC50 (MDCK [12]): > 23.5 µg/mL; EC50 (MDCK [13]): > 23.5 µg/mL
C=C(C(=O)OC)[C@H]1C[C@@H]2c3[nH]c4ccccc4c3CCN2C[C@@H]1CC,> 62.1,62.1,,
CC[C@H]1CN2CCc3c([nH]c4ccccc34)[C@@H]2C[C@@H]1/C(=C/OC)C(=O)OC [DIHYDROCORYNANTHEINE],> 86.3,86.3,,
CC[C@H]1CN2CCc3c([nH]c4ccccc34)[C@H]2C[C@@H]1/C(C=O)=C(/O)OC,> 8.4,8.4,,
CC[C@H]1CN2CCc3c([nH]c4cccc(OC)c34)[C@H]2C[C@@H]1/C(=C\OC)C(=O)OC,0.5,40.7,76.8,
CCO/C=C(\C(=O)OC)[C@H]1C[C@@H]2c3[nH]c4ccccc4c3CCN2C[C@@H]1CC,0.9,32.4,36.4,
CC[C@H]1CN2CCc3c(n(C)c4ccccc34)[C@H]2C[C@@H]1/C(=C\OC)C(=O)OC,1.7,25.3,15.8,
CC[C@H]1CN2CCc3c([nH]c4ccccc34)[C@H]2C[C@@H]1/C(=C/OC)C(=O)O,> 39.2,39.2,,
CC[C@H]1C[N+]2(C)CCc3c([nH]c4ccccc34)[C@H]2C[C@@H]1/C(=C\OC)C(=O)OC (some centres undefined),> 100,> 100,,
CC[C@H]1CN2Cc3c(nc4ccccc4c3O)[C@H]2C[C@@H]1/C(=C\OC)C(=O)OC,> 38.1,38.1,,
